Here are results for four molecules from article doi:10.1101/2022.02.27.481963v1 (biorxiv, 2022).

The Km is the concentration of substrate that gives half-maximal velocity.

One data set relates to fused MjGMPS. The data set is described as follows: continuous absorbance at […] nm, GMP formation. Format: biochemical, Methanocaldococcus jannaschii. The settings on record: ATPPase site, pH 7.0, 70 °C.
Substrate in the data set “purified protein”: O=c1[nH]c(=O)c2ncn([C@@H]3O[C@H](COP(=O)(O)O)[C@@H](O)[C@H]3O)c2[nH]1
The data set is described as follows: purified protein. Format: biochemical, Methanocaldococcus jannaschii. To be noted: pH 7.0, 70 °C.

For the molecule `Nc1ncnc2c1ncn2[C@@H]1O[C@H](COP(=O)(O)OP(=O)(O)OP(=O)(O)O)[C@@H](O)[C@H]1O` [ATP.Mg^2+], in the data set with fused MjGMPS (Mg2+ complex, saturating XMP), the Km stood at 503 ± 6 µM.

Regarding `O=c1[nH]c(=O)c2ncn([C@@H]3O[C@H](COP(=O)(O)O)[C@@H](O)[C@H]3O)c2[nH]1` [XMP], the Km in the data set on fused MjGMPS (saturating ATP.Mg2+) stood at 44 ± 1 µM.

B1: MjATPPase (Methanocaldococcus jannaschii DSM 2661) (protein)
chain: MFDPKKFIDEAVEEIKQQISDRKAIIALSGGVDSSVAAVLTHKAIGDKLTAVFVDTGLMRKGEREEVEKTFRDKLGLNLIVVDAKDRFLNALKGVTDPEEKRKIIGKLFIDVFEEIAEDIKAEVLVQGTIAPDWIETQGKIKSHHNVALPHGMVLEVVEPLRELYKDEVRLLAKELGLPDSIVYRQPFPGPGLAVRVLGEVTEEKLNICREANAIVEEEVKKANLDKDLWQYFAVVLDCKATGVKGDEREYNWIVALRMVKSLDAMTAHVPEIPFDLLKRISKRITSEIPNVARVVFDITDKPPATIEFE
In the case of B1, the Km in “purified protein” (NH4Cl dependent, saturating ATP.Mg2+ and NH4Cl) was 30 ± 2 µM.

B2: MjGMPS (MjATPPase + MjGATase), ATPPase site (Methanocaldococcus jannaschii DSM 2661) (protein)
chain: B1 chain
Consider B2, for which the Km in “purified protein” (Gln dependent, saturating ATP.Mg2+ and Gln) is 61 ± 3 µM.
